Experimental data taken from patent US8691986B2, “Azetidine and piperidine compounds useful as PDE10 inhibitors” (Amgen Inc., priority 2012, dated 2014).

Assays:
human PDE2A1 = human PDE2A1 (Homo sapiens (Human), UniProt O00408); assay: PDE2A inhibition, PDE IMAP TR-FRET assay; format: biochemical; details: FAM-cAMP substrate
Experimental: Purified human PDE2A1 and PDE10A2 enzymes were obtained from BPS Bioscience (San Diego, Calif.). IMAP™ TR-FRET progressive binding system, FAM-cAMP substrate were from Molecular Devices (Sunnyvale, Calif.).
The PDE IMAP assay was conducted in a 384-well black Greiner polypropylene plate (Sigma, St. Louis, Mo.). PDE inhibitors were serial diluted in 100% DMSO and dispensed into assay plate at […] per well using Echo® Liquid Handling System from LABCYTE. Ten μL of PDE enzyme in IMAP reaction buffer (10 mM Tris-HCl, pH 7.2, 10 mM MgCl2, 0.05% NaN3, and 0.01% Tween-20) was added into the assay wells. The PDE enzyme concentration used was based on each lot of enzyme activity, to ensure enzyme reaction falls in a linear range under assay condition. 1.4 nM of PDE2 or […] PDE10 were used in the assay system. Enzyme was pre-incubated with inhibitors for 60 minutes at room temperature before addition of 10 uL of substrate addition, which results in 100 nM of FAM-cAMP in the reaction. Enzyme reaction was allowed to proceed at room temperature for 90 min, and the reaction is stopped by 55 μl addition of binding reagent according to manufacturer's recommendation. The mixture is further incubated at room temperature for additional 4 hours, and signal was read on an Envision multimode reader (PerkinElmer). Fluorescence signals were measured at 520 nm and 485 nm. The signal ratio at 520/485 nm corresponded to the generation of reaction product of AMP, and it was used in all data analysis. Values from DMSO-treated wells were normalized to POC=100, and no-enzyme wells were normalized to POC=0. IC50 values were determined by using the Genedata Screener V9.0.1. The curve fitting algorithm used for dose response data analysis in Genedata Screener is a custom implementation of a robust curve-fitting algorithm called ROUT (Robust regression with outlier detection) and uses a four-parameter logistical (4 PL) Hill model.

PDE10 = PDE10 (Rattus norvegicus (Rat), UniProt Q9QYJ6); assay: PDE10 ex vivo receptor occupancy (RO) screening in rat striatum; details: oral, 10 mpk, 1 h (footnote A)
Chain of PDE10 (Q9QYJ6 whole entry): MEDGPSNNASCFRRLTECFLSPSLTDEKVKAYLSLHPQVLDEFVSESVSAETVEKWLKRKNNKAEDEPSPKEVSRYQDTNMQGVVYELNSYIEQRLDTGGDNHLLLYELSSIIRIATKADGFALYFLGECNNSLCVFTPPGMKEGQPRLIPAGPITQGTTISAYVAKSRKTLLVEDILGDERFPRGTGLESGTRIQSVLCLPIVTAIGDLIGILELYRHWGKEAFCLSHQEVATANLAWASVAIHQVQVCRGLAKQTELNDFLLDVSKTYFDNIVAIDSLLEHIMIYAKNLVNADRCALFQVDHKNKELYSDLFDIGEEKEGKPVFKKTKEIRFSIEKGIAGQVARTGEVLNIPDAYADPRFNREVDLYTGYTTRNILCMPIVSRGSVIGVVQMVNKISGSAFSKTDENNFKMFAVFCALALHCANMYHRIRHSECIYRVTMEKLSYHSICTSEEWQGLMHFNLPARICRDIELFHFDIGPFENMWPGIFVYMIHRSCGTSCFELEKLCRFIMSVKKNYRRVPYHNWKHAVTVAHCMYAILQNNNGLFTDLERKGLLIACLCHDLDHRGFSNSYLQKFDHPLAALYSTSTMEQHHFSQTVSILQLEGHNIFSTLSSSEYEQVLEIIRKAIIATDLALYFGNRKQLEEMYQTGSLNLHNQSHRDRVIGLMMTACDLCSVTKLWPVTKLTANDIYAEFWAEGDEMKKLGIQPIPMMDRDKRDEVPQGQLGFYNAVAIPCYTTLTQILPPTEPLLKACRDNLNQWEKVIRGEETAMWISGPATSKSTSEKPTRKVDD
Experimental: The ex vivo screening protocol was approved by Amgen's Institutional Animal Care and Use Committee (IACUC) and in accordance with the National Institutes of Health Guide for Care and Use of Laboratory Animals in facilities accredited by the Association for the Assessment and Accreditation of Laboratory Animal Care (AALAC).
PDE10 inhibitors were dissolved in 2% Hydroxypropylmethylcellulose (HPMC), 1% Tween-80, pH 2.2 with methanesulfonic acid. Male Sprague Dawley® rats weighing 180-225 g (4 per group) were dosed orally with either vehicle or PDE10 inhibitors (3 mg/kg or 10 mg/kg) and then returned to their home cage to allow for absorption of the compounds. After one hour (with 10 mg/kg PDE10 inhibitor) or four hours (with 3 mg/kg or 10 mg/kg PDE10 inhibitor) rats were sacrificed by CO2 inhalation. Blood was obtained by heart puncture and plasma was frozen and stored at −80° C. for exposure analysis. Brains were removed and immediately frozen in chilled methylbutane, and stored at −80° C. until cutting. Three coronal brain slices per brain containing the striatum were cut at […] using a cryostat and placed onto microscope slides, air-dried and stored at −20° C. For radioligand binding experiments, slides were thawed at room temperature and then incubated with 1 nM a tritium labeled tracer compound (insert citation) in binding buffer (150 mM Phosphate-buffered saline containing 2 mM MgCl2 and 100 mM DTT, pH 7.4) for 1 minute at 4° C. To assess non-specific binding, slides containing adjacent brain sections were incubated in the same solution with addition of […] of an unlabelled, structurally unrelated PDE10 antagonist. Afterwards slides were washed 3 times in ice-cold binding buffer, dipped into distilled water to remove buffer salts, and dried under a stream of cold air. Emission of beta particles from the sections was counted for 8 hours in a Beta Imager 2000 (Biospace, Paris, France) and digitized and analyzed using M3 Vision software (Biospace, Paris, France). Total binding radioactivity in the striatum was measured as cpm/mm^2 in hand-drawn regions of interest and averaged across the three sections per brain. Non-specific binding was subtracted to obtain specific binding values and percent occupancy was calculated by setting vehicle specific binding as 0% occupancy.

Chain of human PDE2A1 (O00408 other isoform, or with tags, fused parts or gaps): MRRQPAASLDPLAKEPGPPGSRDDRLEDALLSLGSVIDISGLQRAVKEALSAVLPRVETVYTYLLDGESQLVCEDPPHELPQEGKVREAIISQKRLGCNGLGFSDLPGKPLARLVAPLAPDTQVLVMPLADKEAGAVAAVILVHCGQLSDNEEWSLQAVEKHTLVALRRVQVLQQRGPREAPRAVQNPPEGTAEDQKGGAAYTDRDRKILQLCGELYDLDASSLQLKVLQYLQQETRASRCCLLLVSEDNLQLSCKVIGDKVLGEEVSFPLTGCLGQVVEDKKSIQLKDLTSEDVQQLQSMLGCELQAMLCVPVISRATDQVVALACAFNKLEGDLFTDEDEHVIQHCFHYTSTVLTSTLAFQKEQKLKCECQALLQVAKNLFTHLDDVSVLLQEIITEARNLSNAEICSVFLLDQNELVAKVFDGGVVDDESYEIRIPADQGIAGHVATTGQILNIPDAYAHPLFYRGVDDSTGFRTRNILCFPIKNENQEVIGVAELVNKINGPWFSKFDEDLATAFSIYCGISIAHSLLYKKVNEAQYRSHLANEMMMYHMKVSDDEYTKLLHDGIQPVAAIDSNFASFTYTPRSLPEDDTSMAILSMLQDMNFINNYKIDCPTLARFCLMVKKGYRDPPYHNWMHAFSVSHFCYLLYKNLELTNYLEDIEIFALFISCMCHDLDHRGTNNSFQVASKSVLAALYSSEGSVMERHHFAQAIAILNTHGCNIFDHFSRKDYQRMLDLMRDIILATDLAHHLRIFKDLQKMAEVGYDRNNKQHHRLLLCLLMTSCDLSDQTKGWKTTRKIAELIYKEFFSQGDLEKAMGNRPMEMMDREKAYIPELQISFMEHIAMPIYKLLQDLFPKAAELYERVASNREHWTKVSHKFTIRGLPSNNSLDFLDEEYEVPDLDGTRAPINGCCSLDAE

| SMILES | IC50 (human PDE2A1) | receptor occupancy at 10 mg/kg (PDE10) |
| --- | --- | --- |
| NC(=O)c1ccc(-c2nccnc2C2CN(c3ccc4ccccc4n3)C2)cc1 [Compound 15, 4-(3-(1-(2-quinolinyl)-3-azetidinyl)-2-pyrazinyl)benzamide, reference compound] | 10 µM | 47.7% |
| NC(=O)c1ccc(-c2nccnc2C2CN(c3ccc4ccccc4n3)C2)cc1F [Compound 16, 2-fluoro-4-(3-(1-(quinolin-2-yl)azetidin-3-yl)pyrazin-2-yl)benzamide, reference compound] | 3.3 µM | 52.3% |
| CNC(=O)c1cccc(-c2nccnc2C2CN(c3ccc4ccccc4n3)C2)c1 [Compound 17, N-methyl-3-(3-(1-(quinolin-2-yl)azetidin-3-yl)pyrazin-2-yl)benzamide, reference compound] | 2.16 µM | 72% |
